Data taken from publication PMC6105845, “Nucleotide Prodrug Containing a Nonproteinogenic Amino Acid To Improve Oral Delivery of a Hepatitis C Virus Treatment” (Antimicrobial Agents and Chemotherapy, 2018).
Several values for one entry are separate records, joined by “and”; a condition that tells them apart may be missing. Equal values may be shown once. Read-outs that look alike come from different tables or passages of the source.

Legend:
[1] = Plasma pharmacokinetics in pentagastrin-pretreated portal vein-cannulated dogs; format: in vivo, male beagle dogs; conditions: for bioavailability / AUC(0-t) / Cmax: male, beagle; for bioavailability / Fa (fraction absorbed): oral 5 mg/kg vs 0.5 mg/kg intravenous infusion; for bioavailability: read-out: F (oral bioavailability)
Method: Plasma and liver pharmacokinetic studies were completed as described previously ([8]). Briefly, intact Golden Syrian hamsters, Sprague-Dawley rats, and beagle dogs (intact and portal vein cannulated) were orally administered a single dose of GS2 or GS2(R+S) in solution formulations at between 5 and 50 mg/kg of body weight. Similarly, studies were completed by administering GS-6620 or its 1:1 diastereomeric mixture in solution or micronized suspension formulations at between 5 and 21.1 mg/kg. Animal doses were chosen to correspond to surface area-adjusted human doses targeted for clinical development (150 to 500 mg). In order to understand hepatic extraction (EH), fraction absorbed (Fa), and oral bioavailability (F), intravenous (i.v.) and oral (p.o.) studies were conducted with GS2 and GS-6620 in intact and portal vein-cannulated dogs. Intravenous dosing used solution formulations at 0.5 mg/kg of the respective prodrugs. Animals were housed and handled in accordance with the Guide for the Care and Use of Laboratory Animals ([23]). The protocols were reviewed and approved by the Institutional Animal Care and Use Committees (IACUC).
Plasma samples were prepared through protein precipitation extraction by adding acetonitrile to a final concentration of 70% containing internal standard (5-iodotubericidin). Samples were dried completely under a stream of nitrogen at 40°C and reconstituted with 0.2% formic acid in water to 3 times the original volume of plasma for LC-MS/MS analysis. Liver samples were prepared by sectioning into smaller pieces and collecting into preweighed 15-ml conical tubes kept on dry ice. Ice-cold extraction buffer (0.1% KOH and 67 mM EDTA in 70% methanol containing chloro-ATP as an internal standard) was added to ∼0.5 g of each liver sample. The mixtures were promptly homogenized using an Omni-Tip TH with disposable, hard tissue homogenizer probes (Omni International). Aliquots of the homogenate were filtered by using 0.2-μm 96-well polypropylene filter plates (Varian Captiva). The filtrates were evaporated to dryness and reconstituted with an equal volume of 1 mM ammonium phosphate buffer (pH 7) prior to LC-MS/MS analysis. Plasma and liver samples were analyzed on a Sciex API-4000 (Applied Biosystems, Foster City, CA) LC-MS/MS instrument. Analytes in plasma samples were separated on a 4-μm, 150- by 2-mm Synergi Max-RP column (Phenomenex, Torrance, CA) using a mobile phase containing 0.2% formic acid and a linear gradient from 2% to 100% acetonitrile at a flow rate of 250 μl/min over 7 min. Analytes in liver samples were separated using a 50- by 2-mm by 2.5-μm Luna C18(2) HST column (Phenomenex, Torrance, CA). A multistage linear gradient from 10% (mobile phase A) to 50% acetonitrile (mobile phase B) in a mobile phase containing 3 mM ammonium formate (pH 5.0) with 10 mM dimethylhexylamine at a flow rate of 0.15 ml/min was used to elute the analytes.
Noncompartmental pharmacokinetic parameters were calculated using WinNonlin 5.01 (Pharsight Corporation, Mountain View, CA). Equations for calculating hepatic extraction (EH; equation 2), fraction absorbed (Fa; equation 3), and oral bioavailability (F; equation 4) have been presented previously ([25]). (2) EH=AUCPO,portal vein−AUCPO,jugular vein/AUCPO,portal vein (3) Fa=F/1−EH (4) F=AUCPO,jugular vein÷DosePO/AUCIV÷DoseIV

[2] = Caco-2 bidirectional permeability; format: in vitro ADME; conditions: human; for Papp A→B / Papp B→A / efflux ratio: at thermodynamic solubility limit in fed simulated intestinal fluid; for efflux ratio: read-out: Efflux ratio B→A/A→B
Method: Caco-2 cells between passage 43 and 71 were grown to confluence for ≥21 days on 12- or 24-well polyethylene terephthalate plates (BD Biosciences). The bidirectional permeability of compounds was tested as described previously ([8]). In brief, the donor well contained Hanks' balanced salt solution (HBSS), 10 mM HEPES (pH 6.5), and 15 mM glucose. The receiver well contained HBSS (pH 7.4) and 1% bovine serum albumin (BSA). The cells were dosed on the apical (A) or basolateral (B) side to determine forward (A to B) and reverse (B to A) permeability. Media from the donor and receiver wells were analyzed by LC-MS/MS.

[3] = test system: HCV GT1a replicon; assay: HCV GT1a replicon, transiently transfected Huh-1C cells; format: cell-based, hepatitis C virus; conditions: for EC50: Hepatitis C virus, GT1A, 72 h
Method: GT1a, GT1b, and GT2a are authentic subgenomic replicons of the indicated strain. Creation of these HCV replicons was reported previously ([7]).
RNA was transcribed in vitro using a MEGAscript […] kit (Ambion, Austin, TX) and transfected into Huh-Lunet and −1C cells using published methods ([21], [22]).
The EC50s, defined as the concentration at which there was a measured 50% decrease in HCV replicon level, were determined in replicon assay as previously described ([24]). Briefly, replicon cells were seeded into 96-well plates. Compounds were serially diluted in DMSO at 200× final concentrations and then added to the assay plate. Luciferase expression was quantified after 3 days of incubation using a commercial luciferase assay (Promega, Madison, WI). Data were analyzed using GraphPad Prism 6.0 (La Jolla, CA).
X represents log of compound concentration and Y represents replicon replication as the percentage of DMSO control. EC50s were calculated as an average from at least three independent experiments.

[4] = molecular target: T1, CatA (Homo sapiens, UniProt P10619); assay: Ester cleavage by CatA; format: biochemical; conditions: for Amidate ester cleavage, specific activity: CatA, GS-6620-containing diastereomeric mixture was used
T1 construct: purified from peripheral blood mononuclear cells (PBMCs) according to a previously published procedure; from tissue; host or cells: peripheral blood mononuclear cells (PBMCs)
T1 sequence (P10619 29-480): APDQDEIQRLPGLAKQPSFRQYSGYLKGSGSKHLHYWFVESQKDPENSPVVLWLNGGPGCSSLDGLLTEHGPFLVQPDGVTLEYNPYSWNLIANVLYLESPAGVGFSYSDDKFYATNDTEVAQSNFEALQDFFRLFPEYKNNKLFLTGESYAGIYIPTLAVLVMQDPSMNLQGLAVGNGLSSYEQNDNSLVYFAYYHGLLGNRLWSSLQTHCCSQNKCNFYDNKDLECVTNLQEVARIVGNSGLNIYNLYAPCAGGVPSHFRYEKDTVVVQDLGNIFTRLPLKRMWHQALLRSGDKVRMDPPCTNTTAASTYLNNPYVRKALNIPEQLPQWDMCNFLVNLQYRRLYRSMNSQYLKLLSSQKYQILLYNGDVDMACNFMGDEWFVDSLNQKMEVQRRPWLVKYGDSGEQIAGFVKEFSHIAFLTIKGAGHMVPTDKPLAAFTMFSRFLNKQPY
Method: Biochemical assays studying prodrug cleavage have been described previously ([8]). In brief, the cleavages of GS2 by CATA, CES1, CES2, and HINT1 were assessed in vitro. The reaction substrates and products were monitored over time by high-performance liquid chromatography (HPLC).

[5] = dog, plasma (jugular vein), oral 5 mg/kg, GS2 in solution, GS-6620 in suspension of micronized material, read-out: AUC0–t jugular
[6] = dog, plasma (jugular vein), oral 5 mg/kg, GS2 in solution, GS-6620 in suspension of micronized material, read-out: Cmax jugular
[7] = dog, plasma (portal vein), oral 5 mg/kg, GS2 in solution, GS-6620 in suspension of micronized material, read-out: AUC0–t portal
[8] = dog, plasma (portal vein), oral 5 mg/kg, GS2 in solution, GS-6620 in suspension of micronized material, read-out: Cmax portal
[9] = dog, plasma, 0.5-mg/kg intravenous infusion (30 min), n = 3, read-out: AUC0–t following intravenous infusion

SMILES	bioavailability ([1]; dog, plasma (jugular vein)) [%]	AUC(0-t) [1, 5] [µM·h]	Cmax [1, 6] [nM]	AUC(0-t) [1, 7] [µM·h]	Cmax [1, 8] [nM]	AUC(0-t) [1, 9] [µM·h]	EH (hepatic extraction) ([1]; oral 5 mg/kg) [%]	Fa (fraction absorbed) [1]	time by which plasma concentration decreased to undetectable ([1]; oral 5 mg/kg, postdose) [h]	Papp A→B [2] [×10⁻⁶ cm/s]	Papp B→A [2] [×10⁻⁶ cm/s]	efflux ratio [2]	EC50 [3] [nM]	Amidate ester cleavage, specific activity [4]	Fa in dog higher than corresponding L-alanine-containing prodrug ([1]; dog, in vivo)	maximal portal concentration lower than GS-6620 ([1]; oral 5 mg/kg)	Papp A→B at 10 μM ([2]; tested at 10 μM) [×10⁻⁶ cm/s]	Papp B→A at 10 μM ([2]; tested at 10 μM) [×10⁻⁶ cm/s]	Fold (GS2/GS-6620) ([3]; EC50 ratio, GT1a, Huh-1C)	CatA activity lower than toward GS-6620-containing diastereomeric mixture ([4]; isopropyl ester cleavage) [fold]
CC(C)OC(=O)[C@H](C)N[P@](=O)(OC[C@H]1O[C@@](C#N)(c2ccc3c(N)ncnn23)[C@](C)(O)[C@@H]1OC(=O)C(C)C)Oc1ccccc1 [GS-6620, reference compound]	15	0.33 ± 0.28	620 ± 430	1.68 ± 0.8	3650 ± 860	0.2	80	79%	≤ 2	1.8	11	5.8	41 ± 19	4,163 pmol/min · μg						
CC(C)OC(=O)C(C)(C)N[P@](=O)(OC[C@H]1O[C@@](C#N)(c2ccc3c(N)ncnn23)[C@](C)(O)[C@@H]1O)Oc1ccccc1 [GS2]	13	0.44 ± 0.09	430 ± 90	1.77 ± 0.26	1610 ± 350	0.34	75	51.6% and 52%		2.6	6.7	2.5	140 ± 60	385 pmol/min/µg	more than 5 fold	approximately 2 fold	0.4	9.3	3.5	11
